Test results taken from ChEMBL document CHEMBL1139178, “Probing acid replacements of thiophene PTP1B inhibitors” (Bioorg Med Chem Lett, 2007).

Assays:
[1] = target: T1, Tyrosine-protein phosphatase non-receptor type 1 (Homo sapiens, UniProt P18031); assay: Inhibition of PTP1B assessed as pNPP hydrolysis
T1 sequence (P18031 whole entry): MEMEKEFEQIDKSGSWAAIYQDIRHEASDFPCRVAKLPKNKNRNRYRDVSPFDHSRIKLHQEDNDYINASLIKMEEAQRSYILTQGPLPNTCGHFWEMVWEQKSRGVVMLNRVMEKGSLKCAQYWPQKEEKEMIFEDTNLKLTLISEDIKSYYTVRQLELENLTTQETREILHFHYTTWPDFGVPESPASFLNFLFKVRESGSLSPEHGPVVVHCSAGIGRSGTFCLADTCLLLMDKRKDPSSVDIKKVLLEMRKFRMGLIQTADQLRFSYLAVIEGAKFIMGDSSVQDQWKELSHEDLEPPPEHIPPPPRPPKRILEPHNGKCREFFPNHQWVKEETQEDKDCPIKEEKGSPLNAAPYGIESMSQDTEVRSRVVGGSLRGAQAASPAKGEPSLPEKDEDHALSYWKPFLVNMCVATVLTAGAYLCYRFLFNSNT

[2] = Permeability of compound by PAMPA; format: ADME; conditions: read-out: permeability

| Ki [1] | Papp [2] | IC50 [1] | SMILES |
| --- | --- | --- | --- |
| – | – | > 2500 µM | NNC(=O)c1sc(Br)c(Br)c1OCC(=O)O |
| – | – | > 2500 µM | O=C(O)COc1c(C(=O)Nc2ccn[nH]2)sc(Br)c1Br |
| – | – | > 2500 µM | N#CCOc1c(C(=O)O)sc(Br)c1Br |
| – | – | > 2500 µM | CCc1nc(-c2sc(Br)c(Br)c2OCC(=O)O)no1 |
| – | – | > 2500 µM | O=C(O)COc1csc(Br)c1Br |
| 170 µM | – | – | Cc1c(-c2ccccc2)sc(-c2nnn[nH]2)c1OCC(=O)O |
| 4.6 µM | – | – | CC(=O)N(c1cccc(-c2sc(-c3nn[nH]n3)c(OCC(=O)O)c2Br)c1)C1CC(C)(C)CC(C)(C)C1 |
| – | – | > 2500 µM | CC(=O)Nc1sc(Br)c(Br)c1OCC(=O)O |
| – | – | 165 µM | C=CCc1sc(Br)c(Br)c1OCC(=O)O |
| – | – | > 2500 µM | N#Cc1sc(Br)c(Br)c1OCC(=O)O |
| – | – | 29 µM | O=C(O)COc1c(C(=O)O)sc(Br)c1Br |
| – | – | > 2500 µM | C=CCOc1c(C(=O)O)sc(Br)c1Br |
| – | – | > 2500 µM | O=C(O)c1sc(Br)c(Br)c1OCC(F)(F)F |
| – | – | > 2500 µM | O=C(O)c1sc(Br)c(Br)c1OCc1nn[nH]n1 |
| – | – | 210 µM | O=C(O)COc1c(C(=O)N2CCOCC2)sc(Br)c1Br |
| – | – | > 2500 µM | CC(C)c1nc(-c2sc(Br)c(Br)c2OCC(=O)O)no1 |
| – | – | > 2500 µM | O=C(COc1c(C(=O)O)sc(Br)c1Br)NO |
| 210 µM | – | 330 µM | O=C(O)COc1c(C(=O)CO)sc(Br)c1Br |
| 18 µM | – | – | O=C(O)COc1c(-c2nnn[nH]2)sc(-c2cccc(NC3CCCCC3)c2)c1Br |
| 120 µM | – | – | O=C(O)COc1cc(-c2ccccc2)sc1-c1nn[nH]n1 |

More lines, now with the values behind:

| SMILES | Ki [1] | Papp [2] | IC50 [1] |
| --- | --- | --- | --- |
| Cc1c(N2CC(=O)NS2(=O)=O)csc1-c1cccc(NC2CCN(S(=O)(=O)Cc3ccccc3)CC2)c1 | 4.3 µM | 0.19 ×10⁻⁶ cm/s | – |
| NC(=O)c1sc(Br)c(Br)c1OCC(=O)O | – | – | > 2500 µM |
| O=C(O)COc1c(-c2nnn[nH]2)sc(Br)c1Br | 270 µM | – | 430 µM |
| O=C(O)c1sc(Br)c(Br)c1OCCO | – | – | > 2500 µM |
| O=C(O)c1sc(Br)c(Br)c1OCC(O)CO (stereo not drawn) | – | – | > 2500 µM |
| O=C1CN(c2csc(-c3ccccc3)c2Br)S(=O)(=O)N1 | – | – | 29 µM |
| O=C1CN(c2c(Cl)sc(-c3ccccc3)c2Cl)S(=O)(=O)N1 | – | 3.54 ×10⁻⁶ cm/s | – |
| O=C(O)COc1c(C(=O)Nc2nccs2)sc(Br)c1Br | – | – | > 2500 µM |
| Cc1c(N2CC(=O)NS2(=O)=O)csc1-c1cccc(NC2CCCCC2)c1 | 12 µM | – | – |
| Cc1nc(-c2sc(Br)c(Br)c2OCC(=O)O)no1 | – | – | > 2500 µM |
| O=C(O)COc1c(-c2nnn[nH]2)sc(-c2ccccc2)c1Br | 20 µM | – | – |
| CC1(C)CC(Nc2cccc(-c3sc(-c4nn[nH]n4)c(OCC(=O)O)c3Br)c2)CC(C)(C)C1 | 1.6 µM | – | – |
| Cc1c(-c2cccc(OC3CCN(S(=O)(=O)Cc4ccccc4)CC3)c2)sc(-c2nn[nH]n2)c1OCC(=O)O | 1.3 µM | 0.22 ×10⁻⁶ cm/s | – |
| O=C(O)COc1c(CO)sc(Br)c1Br | – | – | > 2500 µM |
